These results are taken from ChEMBL document CHEMBL1201862, “PubChem BioAssay data set” (2004).

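Interpolation was linear, between the two tested concentrations surrounding the appropriate level; five concentrations were tested over 48 hours in 96-well plates. The concentration for 50% growth inhibition is given as GI50.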 The source made the active and inactive calls. Rule as the data show it: active = GI50 up to about 1.1 µM and inactive = higher. Where only a bound is given, the exact number is not on record here.

Some test systems named below: A549; ACHN; BT-549; EKVX; HOP-62; NCI-H23; NCI-H460; SK-MEL-28; SK-OV-3; SN12C; SNB-19; SR; UACC-257; UACC-62; A498; MDA-N; OVCAR-3; SF-268; T47D.
Assay in all cases: inhibition of tumour cell growth, NCI panel, 48 h

Regarding `CC(=O)Nc1ccc2nc(-c3cccc(Cl)c3)cc(O)c2c1`, the GI50 was 54.7 µM (inactive) in the assay on A549; 64.6 µM (inactive) with ACHN; 15.4 µM (inactive) in the assay with BT-549; > 100 µM (inactive) in the assay with EKVX; 65 µM (inactive) with HOP-62; 35.6 µM (inactive) in the assay on NCI-H23. Also, the GI50 in the assay on NCI-H460 was > 10 µM (inactive); in the assay on SK-MEL-28 it was 39.3 µM (inactive); with SK-OV-3, 0.787 µM (active); in the assay with SN12C, 32.2 µM (inactive); with SNB-19 it was 7.62 µM (inactive); in the assay with SR it was 5.37 µM (inactive). Besides, the results for the GI50 in the assay on UACC-257 and with UACC-62 were > 100 µM (inactive) and 2.42 µM (inactive), respectively.
For the compound `CS(=O)(=O)N1CC(CI)c2ccc(O)cc21` (stereo not drawn), the GI50 in the assay with A498 is 2.77 µM (inactive); with A549 it was 3.56 µM (inactive); in the assay with ACHN, 2.67 µM (inactive); in the assay on BT-549 it was 3.68 µM (inactive); with EKVX, 3.74 µM (inactive); in the assay on HOP-62 it was 3.02 µM (inactive). The GI50 in the assay with MDA-N was 2.54 µM (inactive); in the assay on NCI-H23 it was 1.32 µM (inactive); with NCI-H460, 2.35 µM (inactive); in the assay with OVCAR-3 it was 2.89 µM (inactive); in the assay on SF-268, 1.32 µM (inactive); with SK-MEL-28, 3.23 µM (inactive). Besides, the values for the GI50 with SN12C, in the assay with SR and in the assay with UACC-257 were 3.44 µM (inactive), 1.4 µM (inactive) and 3.36 µM (inactive), respectively.
As for `COC1=CC(=O)N(C(=O)C2CSC(C(CO)NC(=O)c3csc(/C=N/O)n3)=N2)C1` (stereo not drawn), the GI50 in the assay on A498, in the assay with ACHN, in the assay on BT-549, with EKVX, in the assay with HOP-62 and in the assay on NCI-H23 was > 100 µM (inactive) in each case. Besides, the GI50 in the assay on NCI-H460, in the assay on OVCAR-3, in the assay on SF-268, in the assay with SK-MEL-28, in the assay on SK-OV-3 and with SN12C was > 100 µM (inactive) throughout. Moreover, the GI50 with SNB-19, with SR, with UACC-257 and in the assay with UACC-62 was > 100 µM (inactive) in each case.
As for `C/C(C=O)=N\Nc1cc(C)c2ccccc2n1`, the GI50 in the assay on A498 was 15.2 µM (inactive); in the assay on A549, 20.6 µM (inactive); in the assay with ACHN, 16.3 µM (inactive); with BT-549, 12.8 µM (inactive); with EKVX, 16.9 µM (inactive); with HOP-62 it was 11.2 µM (inactive). Further, the GI50 in the assay on NCI-H23 was 12.4 µM (inactive); in the assay with OVCAR-3 it was 2.62 µM (inactive); in the assay on SF-268, 16.9 µM (inactive); in the assay on SK-MEL-28, 16.3 µM (inactive); in the assay on SK-OV-3, 20.9 µM (inactive); in the assay with SN12C, 16.3 µM (inactive). In addition, the GI50 is 19.1 µM (inactive) with SNB-19; 1.7 µM (inactive) in the assay with SR; 15.8 µM (inactive) with T47D; 17.6 µM (inactive) with UACC-257; 14.7 µM (inactive) in the assay with UACC-62.
For the compound `O=C(c1ccccc1)c1ccc2[nH]c(-c3c(Cl)c(Cl)c(Cl)c(Cl)c3C(=O)N/N=C/c3ccccc3)nc2c1`, the GI50 in the assay on A549 is 27.7 µM (inactive); with ACHN, 16.7 µM (inactive); with BT-549 it was 28.5 µM (inactive); in the assay on EKVX, 18.4 µM (inactive); in the assay on HOP-62, 23.1 µM (inactive); in the assay on MDA-N, 16.3 µM (inactive). Besides, the GI50 is 23 µM (inactive) in the assay on NCI-H23; 19.6 µM (inactive) in the assay on OVCAR-3; 27.5 µM (inactive) in the assay on SF-268; 24 µM (inactive) in the assay on SK-MEL-28; 35.7 µM (inactive) in the assay with SK-OV-3; 18.9 µM (inactive) with SN12C. Besides, the GI50 is 32.6 µM (inactive) in the assay on SNB-19, 14.7 µM (inactive) in the assay with T47D and 23.3 µM (inactive) with UACC-257.
As for `CCOC(=O)/C(C#N)=C(/NS(=O)(=O)c1cc(C)c(Cl)cc1[S-])[n+]1ccc(N(C)C)cc1`, the GI50 in the assay on A498, with A549, in the assay on ACHN, in the assay with BT-549, with EKVX and with HOP-62 was > 100 µM (inactive) throughout. Also, the GI50 in the assay on NCI-H23, in the assay on NCI-H460, in the assay on OVCAR-3, in the assay with SF-268, in the assay on SK-MEL-28 and in the assay with SK-OV-3 was > 100 µM (inactive) throughout. For the same compound, the GI50 with SN12C, in the assay with SNB-19, in the assay on SR, in the assay with T47D, in the assay with UACC-257 and with UACC-62 was > 100 µM (inactive) in each case.
Consider `Cc1cc(C)c2c(n1)S(=O)(=O)N(CCCN1CCN(c3cccc(Cl)c3)CC1)C(C(=O)c1ccc(Br)cc1)=C2O`, for which the GI50 was 34.9 µM (inactive) in the assay with A498; 22.1 µM (inactive) in the assay with A549; 27.3 µM (inactive) in the assay on ACHN; 42.3 µM (inactive) in the assay on BT-549; 19.3 µM (inactive) with EKVX; 19.9 µM (inactive) with HOP-62. Further, the GI50 was 33.5 µM (inactive) with NCI-H23; 8.91 µM (inactive) in the assay with NCI-H460; 16.8 µM (inactive) in the assay with OVCAR-3; 24.5 µM (inactive) in the assay on SF-268; 28.2 µM (inactive) in the assay on SK-MEL-28; 29.5 µM (inactive) with SK-OV-3. The GI50 with SN12C was 11.1 µM (inactive); in the assay on SNB-19, 20.9 µM (inactive); with SR, 13.4 µM (inactive); with T47D, 33.4 µM (inactive); in the assay with UACC-257, 15.3 µM (inactive); with UACC-62 it was 31.6 µM (inactive).
For `Nc1cc(N2CCCC2)nc(=O)n1Cc1ccccc1`, the GI50 in the assay on A549, with ACHN, in the assay with BT-549, in the assay with EKVX, with HOP-62 and in the assay with NCI-H23 was > 100 µM (inactive) in each case. The GI50 with NCI-H460 was > 100 µM (inactive); in the assay on SF-268, 39.5 µM (inactive); in the assay with SN12C, > 100 µM (inactive); in the assay on SNB-19 it was > 100 µM (inactive); in the assay with SR it was > 100 µM (inactive); with UACC-257, > 100 µM (inactive).
Turning to `Cc1csc2nc(-c3cc([N+](=O)[O-])c(Cl)cc3Cl)c(/C=N/N=C(N)N)n12`, the GI50 in the assay with A498 was 19.6 µM (inactive); with A549, 19 µM (inactive); with ACHN, 16.6 µM (inactive); with BT-549 it was 14.6 µM (inactive); in the assay with EKVX it was 19.7 µM (inactive); with HOP-62 it was 16.3 µM (inactive). Besides, the GI50 with NCI-H23 is 16.4 µM (inactive); in the assay with NCI-H460 it was 20.2 µM (inactive); with OVCAR-3, 17 µM (inactive); with SF-268, 16.5 µM (inactive); with SK-MEL-28, 16.4 µM (inactive); in the assay on SN12C it was 16.2 µM (inactive). Besides, the GI50 with SNB-19 was 19.8 µM (inactive); in the assay on SR, 0.0678 µM (active); in the assay with T47D, 16.9 µM (inactive); in the assay with UACC-257, 17.8 µM (inactive); in the assay with UACC-62, 14.2 µM (inactive).
Take `Cc1oc2ccccc2c(=O)c1Cn1nnc2ccccc21`: the GI50 was 62.1 µM (inactive) with A498; 70.8 µM (inactive) in the assay on A549; 41.6 µM (inactive) with ACHN; > 100 µM (inactive) in the assay on EKVX; > 100 µM (inactive) with HOP-62; 39.4 µM (inactive) with MDA-N. Also, the GI50 in the assay on NCI-H23 was > 100 µM (inactive); in the assay with NCI-H460 it was 43.8 µM (inactive); in the assay on OVCAR-3, 30.6 µM (inactive); with SF-268, 34.3 µM (inactive); in the assay on SK-MEL-28, 74 µM (inactive); in the assay on SK-OV-3, > 100 µM (inactive). Moreover, the GI50 with SN12C was > 100 µM (inactive); in the assay on SNB-19, > 100 µM (inactive); with SR it was 35.9 µM (inactive); in the assay with T47D, 10.6 µM (inactive); in the assay on UACC-257, 26.4 µM (inactive); in the assay with UACC-62, 41.7 µM (inactive).
`COc1ccc2c(c1)-c1c(c3cc(OC)ccc3n1CCN1CCOCC1)CC2`: the GI50 with A498 was 46.7 µM (inactive); in the assay with A549, 23.9 µM (inactive); in the assay on ACHN it was 29.4 µM (inactive); in the assay with BT-549, 28.4 µM (inactive); in the assay on HOP-62, 42.6 µM (inactive); in the assay on NCI-H23, 52.1 µM (inactive). In addition, the GI50 with NCI-H460 is 22.8 µM (inactive); with OVCAR-3, 46.1 µM (inactive); in the assay on SF-268, 55 µM (inactive); in the assay on SK-MEL-28, 57.1 µM (inactive); in the assay with SK-OV-3, > 100 µM (inactive); with SN12C, 62.2 µM (inactive). Besides, the GI50 was 3.94 µM (inactive) with SR, 44.4 µM (inactive) in the assay with T47D, 33.4 µM (inactive) with UACC-257 and 16.8 µM (inactive) in the assay with UACC-62.
On to `C#CC(O)/C=C/C(O)CCCC(O)CC#CC(O)C#CCCCCC(O)/C=C/CCCCCC(=O)CCCCCCCCCCCCCC(O)C(O)C#CC(=O)O` (stereo not drawn), for which the GI50 with A498, in the assay on A549, in the assay with ACHN, in the assay with EKVX, with HOP-62 and with MDA-N was > 25 µM (inactive) in each case. In addition, the GI50 with NCI-H23, in the assay on NCI-H460, in the assay on SF-268, in the assay on SK-MEL-28, in the assay on SK-OV-3 and in the assay on SN12C was > 25 µM (inactive) in each case. Besides, the GI50 in the assay with SNB-19 is > 25 µM (inactive); in the assay on SR it was 7.13 µM (inactive); with T47D, > 25 µM (inactive); with UACC-257, > 25 µM (inactive); in the assay on UACC-62, > 25 µM (inactive).
